Experimental data: PubChem BioAssay (NCI)
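96-well plates; 48 h exposure; 5 concentrations. Endpoints by linear interpolation between flanking doses. Not reached: highest tested concentration assigned. The concentration for full growth arrest is given as TGI.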

Assays:
Test in all cases: inhibition of tumour cell growth, NCI panel, 48 h
KM20L2 colon = test system: KM20L2 colon
HT29 colon = test system: HT29 colon
T-47D breast = test system: T-47D breast
KM12 colon = test system: KM12 colon
NCI-H522 lung = test system: NCI-H522 lung
A549 NSCLC = test system: A549 NSCLC
SNB-19 CNS = test system: SNB-19 CNS
RPMI-8226 leukemia = test system: RPMI-8226 leukemia
K-562 leukemia = test system: K-562 leukemia
RXF 393 renal = test system: RXF 393 renal
COLO 205 colon = test system: COLO 205 colon
UACC-62 melanoma = test system: UACC-62 melanoma
MCF7 breast = test system: MCF7 breast
SR leukemia = test system: SR leukemia
MDA-N = test system: MDA-N
UACC-257 melanoma = test system: UACC-257 melanoma
OVCAR-3 ovarian = test system: OVCAR-3 ovarian
SK-MEL-2 melanoma = test system: SK-MEL-2 melanoma
MDA-MB-435 = test system: MDA-MB-435
HOP-62 NSCLC = test system: HOP-62 NSCLC
NCI-H460 lung = test system: NCI-H460 lung
SN12C renal = test system: SN12C renal
786-0 renal = test system: 786-0 renal
DU-145 prostate = test system: DU-145 prostate
SW-620 colon = test system: SW-620 colon
OVCAR-8 ovarian = test system: OVCAR-8 ovarian
HOP-92 NSCLC = test system: HOP-92 NSCLC
NCI/ADR-RES ovarian = test system: NCI/ADR-RES ovarian
SNB-75 CNS = test system: SNB-75 CNS
IGROV1 ovarian = test system: IGROV1 ovarian
XF 498 CNS = test system: XF 498 CNS
TK-10 renal = test system: TK-10 renal
SF-295 CNS = test system: SF-295 CNS
CCRF-CEM leukemia = test system: CCRF-CEM leukemia
HCT-15 colon = test system: HCT-15 colon
PC-3 prostate = test system: PC-3 prostate
RXF-631 renal = test system: RXF-631 renal
A498 renal = test system: A498 renal
HCC-2998 colon = test system: HCC-2998 colon
MDA-MB-231 breast = test system: MDA-MB-231 breast
SF-268 CNS = test system: SF-268 CNS
SK-MEL-5 melanoma = test system: SK-MEL-5 melanoma
OVCAR-4 ovarian = test system: OVCAR-4 ovarian
BT-549 breast = test system: BT-549 breast
DLD-1 colon = test system: DLD-1 colon
U251 CNS = test system: U251 CNS
SK-OV-3 ovarian = test system: SK-OV-3 ovarian
NCI-H23 lung = test system: NCI-H23 lung
HS 578T breast = test system: HS 578T breast
NCI-H226 lung = test system: NCI-H226 lung
CAKI-1 renal = test system: CAKI-1 renal
LOX IMVI melanoma = test system: LOX IMVI melanoma
SK-MEL-28 melanoma = test system: SK-MEL-28 melanoma
EKVX NSCLC = test system: EKVX NSCLC
DMS 114 small cell lung = test system: DMS 114 small cell lung
HCT-116 colon = test system: HCT-116 colon
MOLT-4 leukemia = test system: MOLT-4 leukemia
ACHN renal = test system: ACHN renal
M14 melanoma = test system: M14 melanoma
SF-539 CNS = test system: SF-539 CNS
UO-31 renal = test system: UO-31 renal
LXFL 529 NSCLC = test system: LXFL 529 NSCLC
MALME-3M melanoma = test system: MALME-3M melanoma
HL-60(TB) leukemia = test system: HL-60(TB) leukemia
OVCAR-5 ovarian = test system: OVCAR-5 ovarian
HOP-18 NSCLC = test system: HOP-18 NSCLC
SNB-78 CNS = test system: SNB-78 CNS
DMS 273 small cell lung = test system: DMS 273 small cell lung

SMILES: CC1c2ccccc2Cn2cc3c(c21)C(=O)c1cccc(OP(=O)(O)OCc2ccccc2)c1C3=O (configuration not stated)
- TGI (KM20L2 colon): > 100 µM
- TGI (HT29 colon): > 100 µM
- TGI (T-47D breast): > 100 µM
- TGI (KM12 colon): > 100 µM
- TGI (NCI-H522 lung): > 100 µM
- TGI (A549 NSCLC): > 100 µM
- TGI (SNB-19 CNS): > 100 µM
- TGI (RPMI-8226 leukemia): > 100 µM
- TGI (K-562 leukemia): > 100 µM
- TGI (RXF 393 renal): > 100 µM
- TGI (COLO 205 colon): > 100 µM
- TGI (UACC-62 melanoma): > 100 µM
- TGI (MCF7 breast): > 100 µM
- TGI (SR leukemia): > 100 µM
- TGI (MDA-N): > 100 µM
- TGI (UACC-257 melanoma): > 100 µM
- TGI (OVCAR-3 ovarian): > 100 µM
- TGI (SK-MEL-2 melanoma): > 100 µM
- TGI (MDA-MB-435): > 100 µM
- TGI (HOP-62 NSCLC): > 100 µM
- TGI (NCI-H460 lung): > 100 µM
- TGI (SN12C renal): > 100 µM
- TGI (786-0 renal): > 100 µM
- TGI (DU-145 prostate): > 100 µM
- TGI (SW-620 colon): > 100 µM
- TGI (OVCAR-8 ovarian): > 100 µM
- TGI (HOP-92 NSCLC): > 100 µM
- TGI (NCI/ADR-RES ovarian): > 100 µM
- TGI (SNB-75 CNS): > 100 µM
- TGI (IGROV1 ovarian): > 100 µM
- TGI (XF 498 CNS): > 100 µM
- TGI (TK-10 renal): > 100 µM
- TGI (SF-295 CNS): > 100 µM
- TGI (CCRF-CEM leukemia): > 100 µM
- TGI (HCT-15 colon): > 100 µM
- TGI (PC-3 prostate): > 100 µM
- TGI (RXF-631 renal): > 100 µM
- TGI (A498 renal): > 100 µM
- TGI (HCC-2998 colon): > 100 µM
- TGI (MDA-MB-231 breast): > 100 µM
- TGI (SF-268 CNS): > 100 µM
- TGI (SK-MEL-5 melanoma): > 100 µM
- TGI (OVCAR-4 ovarian): > 100 µM
- TGI (BT-549 breast): > 100 µM
- TGI (DLD-1 colon): > 100 µM
- TGI (U251 CNS): > 100 µM
- TGI (SK-OV-3 ovarian): > 100 µM
- TGI (NCI-H23 lung): > 100 µM
- TGI (HS 578T breast): > 100 µM
- TGI (NCI-H226 lung): > 100 µM
- TGI (CAKI-1 renal): > 100 µM
- TGI (LOX IMVI melanoma): > 100 µM
- TGI (SK-MEL-28 melanoma): > 100 µM
- TGI (EKVX NSCLC): > 100 µM
- TGI (DMS 114 small cell lung): > 100 µM
- TGI (HCT-116 colon): > 100 µM
- TGI (MOLT-4 leukemia): > 100 µM
- TGI (ACHN renal): > 100 µM
- TGI (M14 melanoma): > 100 µM
- TGI (SF-539 CNS): > 100 µM
- TGI (UO-31 renal): > 100 µM
- TGI (LXFL 529 NSCLC): > 100 µM
- TGI (MALME-3M melanoma): > 100 µM
- TGI (HL-60(TB) leukemia): > 77.3 µM
- TGI (OVCAR-5 ovarian): > 100 µM

SMILES: CC1=C(/C=C/C(C)=C/C=C/C(C)=C/C=C/C=C(C)/C=C/C=C(C)/C=C/C=C(C)/C=C/C=C(\C)C(=O)O)C(C)(C)CCC1
- TGI (KM20L2 colon): > 100 µM
- TGI (HT29 colon): > 100 µM
- TGI (KM12 colon): > 100 µM
- TGI (NCI-H522 lung): > 100 µM
- TGI (A549 NSCLC): > 100 µM
- TGI (SNB-19 CNS): > 100 µM
- TGI (RPMI-8226 leukemia): > 100 µM
- TGI (K-562 leukemia): > 100 µM
- TGI (RXF 393 renal): > 100 µM
- TGI (COLO 205 colon): > 100 µM
- TGI (UACC-62 melanoma): > 100 µM
- TGI (UACC-257 melanoma): > 100 µM
- TGI (OVCAR-3 ovarian): > 100 µM
- TGI (SK-MEL-2 melanoma): > 100 µM
- TGI (HOP-62 NSCLC): > 100 µM
- TGI (HOP-18 NSCLC): > 100 µM
- TGI (NCI-H460 lung): > 100 µM
- TGI (SN12C renal): > 100 µM
- TGI (786-0 renal): > 100 µM
- TGI (SW-620 colon): > 100 µM
- TGI (OVCAR-8 ovarian): > 100 µM
- TGI (SNB-75 CNS): > 100 µM
- TGI (IGROV1 ovarian): > 100 µM
- TGI (TK-10 renal): > 100 µM
- TGI (SNB-78 CNS): > 100 µM
- TGI (SF-295 CNS): > 100 µM
- TGI (CCRF-CEM leukemia): > 100 µM
- TGI (HCT-15 colon): > 100 µM
- TGI (RXF-631 renal): > 100 µM
- TGI (A498 renal): > 100 µM
- TGI (SF-268 CNS): > 100 µM
- TGI (SK-MEL-5 melanoma): > 100 µM
- TGI (OVCAR-4 ovarian): > 100 µM
- TGI (DLD-1 colon): > 100 µM
- TGI (U251 CNS): > 100 µM
- TGI (SK-OV-3 ovarian): > 100 µM
- TGI (DMS 273 small cell lung): > 100 µM
- TGI (NCI-H23 lung): > 100 µM
- TGI (NCI-H226 lung): > 100 µM
- TGI (CAKI-1 renal): > 100 µM
- TGI (SK-MEL-28 melanoma): > 100 µM
- TGI (EKVX NSCLC): > 100 µM
- TGI (DMS 114 small cell lung): > 100 µM
- TGI (HCT-116 colon): > 100 µM
- TGI (MOLT-4 leukemia): > 100 µM
- TGI (ACHN renal): > 100 µM
- TGI (M14 melanoma): > 100 µM
- TGI (SF-539 CNS): > 100 µM
- TGI (UO-31 renal): > 100 µM
- TGI (LXFL 529 NSCLC): > 100 µM
- TGI (MALME-3M melanoma): > 100 µM
- TGI (OVCAR-5 ovarian): > 100 µM
